In PubChem BioAssay AID686957 (The Scripps Research Institute Molecular Screening Center, 2013):
Active and inactive are the calls of the source. The rule behind the calls is not given here.

The molecules below were run against T-cell receptor (TCR)-CD3 interaction, human (TCR alpha chain TRAV4) (assay: potency of TCR-CD3 interaction inhibitors, dose response, biochemical, fluorescence, TAMRA-labeled TCR probe (AID 686957)). Settings: TCR-CD3 binding.
In the case of `O=C(N/N=C/c1cc([N+](=O)[O-])cc([N+](=O)[O-])c1O)/C(=C\c1cccs1)NC(=O)c1ccccc1`, the IC50 is reported as > 94.1 µM (inactive).
In the case of `COc1ccc(C(=O)NNC(=S)NC(=O)c2cccc([N+](=O)[O-])c2)cc1`, the IC50 is reported as > 94.1 µM (inactive).
With `CCOC(=O)Cn1c(=NC(=O)c2cc(-c3cccs3)nc3ccccc23)sc2cc(S(N)(=O)=O)ccc21` the IC50 was > 94.1 µM (inactive).
In the case of `COc1cc(O)c(/C=N/NC(=O)c2ccncc2)c(OC)c1[N+](=O)[O-]`, the IC50 is reported as > 94.1 µM (inactive).
In the case of `Cc1cc2oc3ccc(NCCCn4ccnc4)cc3c(=O)c2cc1C`, the IC50 is reported as > 94.1 µM (inactive).
With `COc1ccc(/C=N/NC(=O)c2cc(O)c(O)c(O)c2)cc1Cn1cc([N+](=O)[O-])cn1` the IC50 was 3.84 µM.
With `CCc1n[nH]c(=S)n1/N=C/c1cc(OC)cc([N+](=O)[O-])c1O` the IC50 was “inactive”.
With `Cc1ccc(-n2c(O)c(/C=N/NC(=O)C3COc4ccccc4O3)c3ccccc3c2=O)cc1` (configuration not stated) the IC50 was > 94.1 µM (inactive).
`O=C(N/N=C/c1ccoc1)c1cc(O)cc(O)c1` was tested, and the IC50 was > 94 µM (inactive).
`O=C(CNC(=O)c1ccccc1F)NNC(=O)c1ccccc1O` was tested, and the IC50 was > 94.1 µM (inactive).
`COc1cc([N+](=O)[O-])cc(/C=N/NC(=O)c2cc(C)nc3ccccc23)c1O` was tested, and the IC50 was > 94.1 µM (inactive).
With `O=C(N/N=C/c1sc(=O)[nH]c1-[n+]1ccc2ccccc2c1)c1ccccc1[O-]` the IC50 was > 94.1 µM (inactive).
For `O=C(NNC(=O)c1cc(Cl)ccc1O)c1cccc(S(=O)(=O)N2CCOCC2)c1`, the IC50 was > 94.1 µM (inactive).
In the case of `Cc1cc([N+](=O)[O-])cc(/C=N\NC(=O)C2COc3ccccc3O2)c1O` (configuration not stated), the IC50 is reported as > 94.2 µM (inactive).
In the case of `COc1cccc(/C=C2/SC(=S)N(CC(=O)NNC(=O)c3ccccc3O)C2=O)c1`, the IC50 is reported as > 94.1 µM (inactive).
In the case of `Oc1ccc(-c2cn3c(n2)SCC3)cc1O`, the IC50 is reported as “inactive”.
`Cc1cc(C)c2c(N)c(C(=O)NN)sc2n1` was tested, and the IC50 was > 94.1 µM (inactive).
With `CC(C)C(=O)Nc1ccc(C(=O)NNC(=S)NC(=O)c2ccco2)cc1` the IC50 was > 94.1 µM (inactive).
For `C/C(=N\NC(=O)c1nnn(-c2nonc2N)c1-c1ccccc1)c1ccccc1O`, the IC50 was > 94.1 µM (inactive).
`CC1CCN(S(=O)(=O)c2ccc(NC(=O)Cn3nnc(-c4ccccc4F)n3)cc2)CC1` was tested, and the IC50 was “inactive”.
In the case of `Cc1ccc(S(=O)(=O)N2CCC(C(=O)NNC(=O)c3ccccc3O)CC2)cc1C`, the IC50 is reported as > 94.1 µM (inactive).
In the case of `CCc1ccccc1NC(=O)NNC(=O)c1ccc2ccccc2c1O`, the IC50 is reported as > 94.1 µM (inactive).
`CCc1ccc(NC(=O)NNC(=O)c2ccc3ccccc3c2O)cc1` was tested, and the IC50 was > 94.1 µM (inactive).
In the case of `Cc1ccc(O)c(/C=N/NC(=O)COc2ccc3c(C)cc(=O)oc3c2)c1`, the IC50 is reported as > 94.1 µM (inactive).
With `CC1=NN(C(=O)c2ccccc2)C(O)(c2ccc(Br)cc2)C1` (configuration not stated) the IC50 was > 94.2 µM (inactive).
With `O=C(N/N=C/c1cc(Br)cc(Br)c1O)c1cccc(N2CCCC2=O)c1` the IC50 was > 94.1 µM (inactive).
In the case of `C/C(=N\OCc1nc2ccccc2c(=O)n1/N=C/c1cc(C)cc([N+](=O)[O-])c1O)c1ccccc1`, the IC50 is reported as > 94.1 µM (inactive).
`O=C(Nc1cccc(S(=O)(=O)NC2=NCCC2)c1)c1cc(-c2ccco2)nc2ccccc12` was tested, and the IC50 was > 94.1 µM (inactive).
For `COc1ccc(C)cc1NC(=O)NNC(=O)c1cc2ccccc2cc1O`, the IC50 was > 94.1 µM (inactive).
In the case of `Cn1c(=O)c(C(=O)NNC(=O)c2ccccc2F)c(O)c2ccccc21`, the IC50 is reported as > 94.1 µM (inactive).
Work on `N#C/C(=C\c1ccc(O)c(O)c1)C(=O)Nc1cccc2ncccc12` yielded an IC50 of 8.85 µM.
In the case of `CN=c1scc(C)n1/N=C/c1ccc(O)c(O)c1O`, the IC50 is reported as “inactive”.
`COc1ccc(C(=O)NC(=S)NNC(=O)c2ccc(O)cc2)cc1[N+](=O)[O-]` was tested, and the IC50 was > 94.1 µM (inactive).
In the case of `CN(CCC#N)C(=O)COC(=O)c1c2c(nc3ccccc13)/C(=C\c1ccco1)CC2`, the IC50 is reported as > 94.1 µM (inactive).
With `Cc1ccccc1C(=O)NNC(=S)NC(=O)c1cccnc1` the IC50 was > 94.1 µM (inactive).
With `Oc1c(Br)cc(Br)cc1/C=N/NC(=S)N[C@H]1CC2C=CC1C2` (some centres not stated) the IC50 was > 94.1 µM (inactive).
`O=c1cc(-c2ccc(O)cc2)oc2cc(O)c(C3OC(CO)C(O)C(O)C3O)c(O)c12` (configuration not stated) was tested, and the IC50 was > 94.1 µM (inactive).
In the case of `COc1ccc(/C=C2\SC(=O)N(CC(=O)NNC(=O)c3ccccc3O)C2=O)cc1OC`, the IC50 is reported as > 94.1 µM (inactive).
In the case of `COc1ccc(C(=O)NNC(=S)NC(=O)c2cccnc2)cc1`, the IC50 is reported as > 94.1 µM (inactive).
With `O=C(NNC(=O)c1ccccc1O)c1ccc(-c2ccc([N+](=O)[O-])cc2)o1` the IC50 was > 94.1 µM (inactive).
`CN(C)S(=O)(=O)c1cccc(NC(=O)COC(=O)c2cc(-c3cccc(Br)c3)nc3ccccc23)c1` was tested, and the IC50 was “inactive”.
For `O=C(Cc1ccccc1)N/N=C/c1cc(Br)cc(Br)c1O`, the IC50 was > 94.1 µM (inactive).
In the case of `O=C(NNC(=O)C1CCN(S(=O)(=O)c2ccccc2C(F)(F)F)CC1)c1ccccc1O`, the IC50 is reported as > 94.1 µM (inactive).
In the case of `O=C1C(=Cc2cn(-c3ccccc3)nc2-c2ccc(OCc3ccccc3)cc2)SC(=S)N1CCS(=O)(=O)O`, the IC50 is reported as > 94.2 µM (inactive).
`C/C(=N/NC(=O)c1cc(O)c(O)c(O)c1)c1ccc([N+](=O)[O-])cc1` was tested, and the IC50 was > 94.1 µM (inactive).
`O=C(O)c1ccccc1NS(=O)(=O)c1ccc(N/N=C/c2ccc(O)c(O)c2)c([N+](=O)[O-])c1` was tested, and the IC50 was “inactive”.
For `O=c1cc(-c2ccc(O)c(O)c2)oc2c1ccc1ccccc12`, the IC50 was 6.25 µM.
`CCCCCCn1c(=O)c(C(=O)Nc2ncccc2O)c(O)c2ccccc21` was tested, and the IC50 was > 94.2 µM (inactive).
With `O=C(NNC(=O)c1c(O)c2ccccc2[nH]c1=O)c1ccccc1` the IC50 was > 94.1 µM (inactive).
For `O=C(CSc1nnc(-c2ccccc2)n1Cc1ccccc1)NNC(=O)c1ccccc1O`, the IC50 was > 94.1 µM (inactive).
`Cc1noc(C)c1COc1ccc(C(=O)NNC(=O)c2ccccc2O)cc1` was tested, and the IC50 was > 94.1 µM (inactive).
With `O=C(CSc1nnc(-c2ccccc2O)n1Cc1ccccc1)NNC(=O)c1ccccc1O` the IC50 was > 94.1 µM (inactive).
With `O=c1cc(-c2ccc(O)c(O)c2)oc2ccc3ccccc3c12` the IC50 was > 94.2 µM (inactive).
With `Cc1cc(C(=O)N/N=C/c2cc(Cl)cc([N+](=O)[O-])c2O)c2ccccc2n1` the IC50 was > 94.1 µM (inactive).
With `COc1ccc(NC(=O)NNC(=O)c2cc3ccccc3cc2O)cc1` the IC50 was > 94.1 µM (inactive).
In the case of `COc1ccc(NS(=O)(=O)c2cc(NC(=O)/C=C/c3cc(OC)c(OC)c(OC)c3)ccc2N2CCCCC2)cc1`, the IC50 is reported as > 94.1 µM (inactive).
With `O=c1c2ccccc2nc(COc2ccccc2)n1/N=C/c1cc([N+](=O)[O-])ccc1O` the IC50 was > 94.1 µM (inactive).
`O=C(N/N=C/c1c(O)n(CCc2ccccc2)c(=O)[nH]c1=O)c1ccccc1O` was tested, and the IC50 was > 94 µM (inactive).
With `COc1ccc(C(=O)NNC(=S)NC(=O)c2cccs2)cc1` the IC50 was > 94 µM (inactive).
With `O=C(CN1C(=O)S/C(=C\c2ccccc2)C1=O)NNC(=O)c1ccccc1O` the IC50 was > 94.1 µM (inactive).
With `COC(=O)C1CCN(C(=O)c2cc(-c3ccco3)nc3ccccc23)CC1` the IC50 was > 94.1 µM (inactive).
`Cc1cc(/C=N/n2c(COc3ccccc3C)nc3ccccc3c2=O)c(O)c([N+](=O)[O-])c1` was tested, and the IC50 was > 94.1 µM (inactive).
For `Cc1ccc(/C=C2\SC(=S)N(CCCC(=O)NNC(=O)c3ccccc3O)C2=O)cc1`, the IC50 was > 94.1 µM (inactive).
With `Cc1cc(Br)cc(/C=N/NC(=O)c2ccc3c(c2)OCO3)c1O` the IC50 was > 94.1 µM (inactive).
With `COc1ccc(-c2cnnn2-c2ccc(NC(=O)c3ccc(S(=O)(=O)N4CCCCC4)cc3)cc2)cc1OC` the IC50 was “inactive”.
`O=C(CNC(=O)c1ccccc1Br)N/N=C\c1cc([N+](=O)[O-])cc(Br)c1O` was tested, and the IC50 was > 94.1 µM (inactive).
`O=C(N/N=C/c1c(O)n(Cc2ccco2)c(=O)[nH]c1=O)c1ccccc1` was tested, and the IC50 was > 94.2 µM (inactive).
